Results from US8921360B2, “Heterobicycle-substituted azolyl benzene fungicides” (priority 2009, dated 2014).

Key:
Format in all cases: in vivo
[1] = tested on: Erysiphe graminis f. sp. tritici; assay: Test A: wheat powdery mildew, preventive spray on wheat seedlings; details: Blumeria graminis, 192 h, wheat seedlings sprayed to run-off, inoculated next day, rated after 8 days, 100 = 100% disease control, 0 = no control, read-out: Percentage Disease Control Test A
Summary of the method: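 Wheat seedlings sprayed to run-off with compound suspended in acetone/water 50/50 plus 250 ppm Trem 014, at 200 ppm (equivalent to 800 g/ha) or 40 ppm where marked. Inoculated next day with Erysiphe graminis f. sp. tritici spore dust, held 8 days at 20° C. Disease visually rated as % control relative to untreated controls.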

[2] = tested on: Puccinia recondita f sp. tritici; assay: Test B: wheat leaf rust, preventive spray on wheat seedlings; details: Puccinia recondita, 192 h, wheat seedlings sprayed to run-off, inoculated next day, rated after 24 h + 7 days, read-out: Percentage Disease Control Test B
Botrytis cinerea = assay: Test F: tomato botrytis, preventive spray on tomato seedlings; details: Botrytis cinerea, topical, 120 h, tomato seedlings sprayed to run-off, inoculated next day, rated after 48 h + 3 days, read-out: Percentage Disease Control Test F
Summary of the method: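 Tomato seedlings sprayed to run-off with compound suspended in acetone/water (50/50) with 250 ppm Trem® 014, at 200 ppm (800 g/ha) or 40 ppm where marked, then inoculated next day with B. cinerea spores. Held 48 h saturated at 20° C, then 3 days at 27° C; disease control rated visually, 0–100 versus untreated controls.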

[3] = tested on: Puccinia recondita f. sp. tritici; assay: Test C: wheat leaf rust, spray the day after inoculation of wheat seedlings; details: Puccinia recondita, 120 h, wheat seedlings inoculated, sprayed the following day, rated after 5 days, read-out: Percentage Disease Control Test C;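 note: Curative spray on infected wheat seedlings with visual rating 5 days later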
Summary of the method: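 Wheat seedlings inoculated with P. recondita spores, held 24 h at 20 °C in saturated atmosphere, then sprayed to run-off next day (curative). Test suspension in acetone/water with 250 ppm surfactant, 200 ppm (≈800 g/ha) or 40 ppm. Disease rated visually after 5 days at 20 °C as % control relative to untreated.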

Septoria tritici = assay: Test E: wheat leaf blotch, preventive spray on wheat seedlings; details: Zymoseptoria tritici, 456 h; 200 ppm; wheat seedlings sprayed to run-off, inoculated next day, rated after 48 h + 19 days; read-out: Percentage Disease Control Test E
Summary of the method: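 Wheat seedlings were sprayed to run-off with compound at 200 ppm (≈800 g/ha) or 40 ppm in acetone/water with surfactant. Spores were inoculated the next day, followed by 48 h saturated atmosphere at 24° C, then 19 days at 20° C. Disease control was visually rated 0–100 relative to controls.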

Question: Which results are given for `CC(=O)NCc1cc(-n2ccc(-c3ccc4c(c3)CCCO4)n2)ccc1Cl` [Compound 8, N-[[2-chloro-5-[3-(3,4-dihydro-2H-1-benzopyran-6-yl)-1H-pyrazol-1-yl]phenyl]methyl]acetamide]?
Answer: pest or weed control at 200 ppm [1]: 0%; pest or weed control at 200 ppm [2]: 100%; pest or weed control at 200 ppm (Botrytis cinerea): 73%; pest or weed control at 200 ppm [3]: 26%; pest or weed control at 200 ppm (Septoria tritici): 98%

Question: What does the source list for `CNC(=O)NCc1cc(-n2ccc(-c3ccc4c(c3)CCCO4)n2)ccc1Cl` [Compound 9, N-[[2-chloro-5-[3-(3,4-dihydro-2H-1-benzopyran-6-yl)-1H-pyrazol-1-yl]phenyl]methyl]-N′-methylurea]?
Answer: pest or weed control at 200 ppm [1]: 0%; pest or weed control at 200 ppm [2]: 88%; pest or weed control at 200 ppm (Botrytis cinerea): 0%; pest or weed control at 200 ppm [3]: 8%; pest or weed control at 200 ppm (Septoria tritici): 79%

Question: `COC(=O)NCc1cc(-c2ccn(-c3ccc4c(c3)CC(=O)CO4)n2)ccc1Cl` [Compound 29, methyl N-[[2-chloro-5-[1-(3,4-dihydro-3-oxo-2H-1-benzopyran-6-yl)-1H-pyrazol-3-yl]phenyl]methyl]carbamate] was tested. Which pest or weed control at 200 ppm [1] did it give?
Answer: 72%

Question: And the pest or weed control at 200 ppm [2]?
Answer: 99%

Question: What about the pest or weed control at 200 ppm (Botrytis cinerea) of the same compound?
Answer: 0%

Question: And the pest or weed control at 200 ppm [3]?
Answer: 0%

Question: And the pest or weed control at 200 ppm (Septoria tritici)?
Answer: 10%

Question: `COC(=O)NCc1cc(-n2ccc(-c3ccc4c(c3)CCCO4)n2)ccc1Cl` [Compound 5, methyl N-[[2-chloro-5-[3-(3,4-dihydro-2H-1-benzopyran-6-yl)-1H-pyrazol-1-yl]phenyl]methyl]carbamate] was tested. Which pest or weed control at 200 ppm [1] did it give?
Answer: 100%

Question: What about the pest or weed control at 200 ppm [2] of the same compound?
Answer: 100%

Question: What about the pest or weed control at 200 ppm (Botrytis cinerea) of the same compound?
Answer: 98%

Question: What about the pest or weed control at 200 ppm [3] of the same compound?
Answer: 100%

Question: And the pest or weed control at 200 ppm (Septoria tritici)?
Answer: 100%
